Structures can show the parent of a compound that is named as a salt. Where only a bound is given, the exact number is not on record here.

Data set [1] deals with T1, HCMV polymerase (Human cytomegalovirus, UniProt P08546).
T1 construct: made in house; host or cells: recombinant baculovirus-infected SF-9 cells
Description: biochemical. Particulars: modified SPA assay: compounds diluted in 100% DMSO, 4.5 mM DTT in polymerase buffer; read-out: polymerase IC50 (μM) HCMV. As to the method: The HCMV polymerase assay is performed using a scintillation proximity assay (SPA) as described in several references, such as N. D. Cook, et al., Pharmaceutical Manufacturing International, pages 49-53 (1992); K. Takeuchi, Laboratory Practice, September issue (1992); U.S. Pat. No. 4,568,649 (1986); which are incorporated by reference herein. Reactions are performed in 96-well plates. The assay is conducted in 100 μl volume with 5.4 mM HEPE (pH 7.5), 11.7 mM KCl, 4.5 mM MgCl2, 0.36 mg/ml BSA, and 90 nM ^3H-dTTP. Assays are run with and without CHAPS, (3-[(3-cholamidopropyl)-dimethylammonio]-1-propane-sulfonate) at a final concentration of 2 mM. HCMV polymerase is diluted in enzyme dilution buffer containing 50% glycerol, 250 mM NaCl, 10 mM HEPES (pH 7.5), 100 μg/ml BSA, and 0.01% sodium azide. The HCMV polymerase, which is expressed in recombinant baculovirus-infected SF-9 cells and purified according to literature procedures, is added at 10% (or 10 μl) of the final reaction volume, i.e., 100 μl. Compounds are diluted in 50% DMSO and 10 μl are added to each well. Control wells contain an equivalent concentration of DMSO. Unless noted otherwise, reactions are initiated via the addition of 6 nM biotinylated poly(dA)-oligo(dT) template/primer to reaction mixtures containing the enzyme, substrate, and compounds of interest. Plates are incubated in a 25 C or 37 C H2O bath and terminated via the addition of 40 μl/reaction of 0.5 M EDTA (pH 8) per well. Reactions are terminated within the time-frame during which substrate incorporation is linear and varied depending upon the enzyme and conditions used, i.e., 30 min. for HCMV polymerase. Ten μl of streptavidin-SPA beads (20 mg/ml in PBS/10% glycerol) are added following termination of the reaction. Plates are incubated 10 min. at 37 ° C., then equilibrated to room temperature, and counted on a Packard Topcount. Linear regressions are performed and IC50's are calculated using computer software.
A modified version of the above HCMV polymerase assay is performed as described above, but with the following changes: Compounds are diluted in 100% DMSO until final dilution into assay buffer. In the previous assay, compounds are diluted in 50% DMSO. 4.5 mM dithiothreotol (DTT) is added to the polymerase buffer.

T1 sequence (P08546 whole entry): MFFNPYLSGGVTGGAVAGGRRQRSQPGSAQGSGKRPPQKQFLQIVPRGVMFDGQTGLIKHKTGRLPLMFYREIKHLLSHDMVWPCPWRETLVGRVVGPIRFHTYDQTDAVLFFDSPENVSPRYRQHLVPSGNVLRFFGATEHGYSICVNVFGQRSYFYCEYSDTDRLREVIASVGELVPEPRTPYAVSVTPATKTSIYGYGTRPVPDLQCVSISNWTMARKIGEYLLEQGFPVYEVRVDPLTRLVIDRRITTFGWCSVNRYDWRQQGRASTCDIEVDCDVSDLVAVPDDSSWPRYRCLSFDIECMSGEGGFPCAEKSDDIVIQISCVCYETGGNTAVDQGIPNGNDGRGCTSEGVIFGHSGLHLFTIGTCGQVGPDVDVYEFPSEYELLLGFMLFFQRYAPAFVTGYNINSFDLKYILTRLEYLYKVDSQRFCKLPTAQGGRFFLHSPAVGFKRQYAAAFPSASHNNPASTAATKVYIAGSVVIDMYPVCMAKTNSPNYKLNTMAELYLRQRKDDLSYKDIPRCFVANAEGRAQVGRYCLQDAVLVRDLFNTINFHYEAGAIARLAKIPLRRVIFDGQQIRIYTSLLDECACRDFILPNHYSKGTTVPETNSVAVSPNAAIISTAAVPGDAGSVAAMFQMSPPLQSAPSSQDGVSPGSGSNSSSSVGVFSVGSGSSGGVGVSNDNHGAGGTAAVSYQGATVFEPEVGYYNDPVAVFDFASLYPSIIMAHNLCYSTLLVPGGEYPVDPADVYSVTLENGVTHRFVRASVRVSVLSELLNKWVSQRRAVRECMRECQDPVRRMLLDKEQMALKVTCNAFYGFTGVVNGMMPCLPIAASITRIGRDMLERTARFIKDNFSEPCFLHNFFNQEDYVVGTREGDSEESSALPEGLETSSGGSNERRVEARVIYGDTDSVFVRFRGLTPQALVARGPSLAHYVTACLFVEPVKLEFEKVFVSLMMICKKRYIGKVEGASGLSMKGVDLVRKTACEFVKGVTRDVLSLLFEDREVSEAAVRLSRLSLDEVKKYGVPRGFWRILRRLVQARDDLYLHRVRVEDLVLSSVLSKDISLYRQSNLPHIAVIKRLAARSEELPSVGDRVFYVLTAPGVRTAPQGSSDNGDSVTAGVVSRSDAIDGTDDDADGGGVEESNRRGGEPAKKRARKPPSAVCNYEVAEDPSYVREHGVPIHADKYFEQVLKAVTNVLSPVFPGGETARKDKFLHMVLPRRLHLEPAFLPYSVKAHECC

As to `CCN(CC)CCn1cc(C(=O)NCc2ccc(Cl)cc2)c(=O)c2cc(C#CCO)sc21` (as salt: hydrochloride) [Example 18, N-(4-Chlorobenzyl)-7-[2-(diethylamino)ethyl]-2-(3hydroxy-1-propynyl)4-oxo4,7-dihydrothieno[2,3-b]pyridine-5-carboxamide hydrochloride], the melting point was 212 to 214 °C (dec.).
Same read-out and setting: the same measure for `CCn1cc(C(=O)NCc2ccc(Cl)cc2)c(=O)c2cc(C#CCOC(=O)C(N)C(C)C)sc21` (stereo not shown) (as salt: hydrochloride) [Example 31, 3-(5-{[(4-Chlorobenzyl)amino]carbonyl}-7-ethyl-4-oxo-4,7-dihydrothieno[2,3-b]pyridin-2-yl)-2-propynyl 2-Amino-3-methylbutanoate Hydrochloride]: 171 to 172 °C.
For `O=C(NCc1ccc(Cl)cc1)c1cnc2sccc2c1O` [Example 1, N-(4-Chlorobenzyl)-4-hydroxythieno[2,3-b]pyridine-5-carboxamide], the melting point was in the range of 238 to 240 °C. For the same molecule, the 50% inhibitory concentration (IC50) in data set [1] was found to be 28.9 µM.
The matching figures for `O=C(NCc1ccc(Cl)cc1)c1cnc2sc(I)cc2c1O` [Example 2, N-(4-Chlorobenzyl)-4-hydroxy-2-iodothieno[2,3-b]pyridine-5-carboxamide]: 231 to 232 °C (dec.) and 6.3 µM.
Turning to `O=C(NCc1ccc(Cl)cc1)c1cnc2sc(S(=O)(=O)N3CCOCC3)cc2c1O` [Example 3, N-(4-Chlorobenzyl)-4-hydroxy-2-(4-morpholinylsulfonyl)-thieno[2,3-b]pyridine-5-carboxamide], the melting point is more than 300 °C. Besides, the concentration for half-maximal inhibition (IC50) in data set [1] is 15.9 µM.
`O=C(NCc1ccc(Cl)cc1)c1cnc2sc(Br)cc2c1O` [Example 4, 2-Bromo-N-(4-chlorobenzyl)-4-hydroxythieno[2,3-b]pyridine-5-carboxamide] gave a melting point of 234 to 236 °C. Besides, the IC50 in data set [1] is 10.8 µM.
Molecule `COCC#Cc1cc2c(O)c(C(=O)NCc3ccc(Cl)cc3)cnc2s1` [Example 6, N-(4-Chlorobenzyl)-4-hydroxy-2-(3-methoxy-1-propynyl)-thieno[2,3-b]pyridine-5-carboxamide] came in with a melting point of 215 to 218 °C. Also, the half-inhibitory concentration (IC50) in data set [1] is 5.8 µM.
On to `O=C(NCc1ccc(Cl)cc1)c1cnc2sc(C#CCCO)cc2c1O` [Example 7, N-(4-Chlorobenzyl)-4-hydroxy-2-(4-hydroxy-1-butynyl)thieno[2,3-b]pyridine-5-carboxamide], for which the melting point was 242 to 246 °C. The IC50 in data set [1] was 8 µM.
As for `N#Cc1cc2c(O)c(C(=O)NCc3ccc(Cl)cc3)cnc2s1` [Example 9, N-(4-Chlorobenzyl)-2-cyano-4-hydroxythieno[2,3-b]pyridine-5-carboxamide], the IC50 in data set [1] came to 12.5 µM.
`COC(=O)C(CC#Cc1cc2c(O)c(C(=O)NCc3ccc(Cl)cc3)cnc2s1)C(=O)OC` [Example 10, Dimethyl 2-[3-(5-{[(4-Chlorobenzyl)amino]carbonyl}-4-hydroxythieno[2,3-b]pyridin-2-yl)-2-propynyl]malonate] displayed a melting point of 197 to 198 °C. Further, in data set [1], the concentration for half-maximal inhibition (IC50) is 34.3 µM.
Consider `CCn1cc(C(=O)NCc2ccc(Cl)cc2)c(=O)c2cc(Br)sc21` [Example 11, 2-Bromo-N-(4-chlorobenzyl)-7-ethyl-4-oxo-4,7-dihydrothieno[2,3-b]pyridine-5-carboxamide], for which the melting point fell in the range of 196 to 197 °C. Moreover, the IC50 in data set [1] is 18.8 µM.
As to `CCn1cc(C(=O)NCc2ccc(Cl)cc2)c(=O)c2ccsc21` [Example 12, N-(4-Chlorobenzyl)-7-ethyl-4-oxo-4,7-dihydrothieno[2,3-b]pyridine-5-carboxamide], the melting point lay in the range of 183 to 184 °C. For the same molecule, in data set [1], the concentration for half-maximal inhibition (IC50) worked out at 11 µM.
The like results for `CCn1cc(C(=O)NCc2ccc(Cl)cc2)c(=O)c2cc(I)sc21` [Example 13, N-(4-Chlorobenzyl)-7-ethyl-2-iodo-4-oxo-4,7-dihydrothieno[2,3-b]pyridine-5-carboxamide] were, in that order, 214 to 218 °C and 9 µM.
Consider `CCn1cc(C(=O)NCc2ccc(Cl)cc2)c(=O)c2cc(C#CCO)sc21` [Example 14, N-(4-Chlorobenzyl)-7-ethyl-2-(3-hydroxy-1-propynyl)-4-oxo4,7-dihydrothieno[2,3-b]pyridine-5-carboxamide], for which the melting point lay within 217 to 219 °C. In addition, the IC50 in data set [1] was found to be 1.8 µM.
Regarding `CCn1cc(C(=O)NCc2ccc(Cl)cc2)c(=O)c2cc(CCCO)sc21` [Example 16, N-(4-Chlorobenzyl)-7-ethyl-2-(3-hydroxypropyl)-4-oxo-4,7-dihydrothieno [2,3-b] pyfidine-5-carboxamide], the melting point fell in the range of 144 to 146 °C. Moreover, the IC50 in data set [1] stood at 0.67 µM.
As for `O=C(O)Cn1cc(C(=O)NCc2ccc(Cl)cc2)c(=O)c2cc(C#CCO)sc21` [Example 19, 2-[5-{[(4-Chlorobenzyl)amino]carbonyl}-2-(3-hydroxy-1-propynyl)4-oxothieno[2,3-b]pyridin-7(4H)-yl]acetic Acid], the melting point was 230 to 235 °C (dec.). Moreover, the IC50 in data set [1] was 0.86 µM.
The like results for `CCn1cc(C(=O)NCc2ccc(Cl)cc2)c(=O)c2cc(CCCCO)sc21` [Example 20, N-(4-Chlorobenzyl)-7-ethyl-2-(4-hydroxybutyl)4-oxo-4,7-dihydrothieno[2,3-b]pyridine-5-carboxamide] were, in that order, 136 to 139 °C and 0.18 µM.
The matching figures for `O=C(NCc1ccc(Cl)cc1)c1cn(CCO)c2sc(CCCO)cc2c1=O` [Example 21, N-(4-Chlorobenzyl)-7-(2-hydroxyethyl)-2-(3-hydroxypropyl)4-oxo-4,7-dihydrothieno[2,3-b]pyridine-5-carboxamide]: 174 to 178 °C and less than 0.78 µM.
The matching figures for `CCN(CC)CCn1cc(C(=O)NCc2ccc(Cl)cc2)c(=O)c2cc(CCCO)sc21` [Example 22, N-(4-Chlorobenzyl)-7-[2-(diethylamino)ethyl]-2-(3-hydroxypropyl)4-oxo4,7-dihydrothieno[2,3-b]pyridine-5-carboxamide Hydrorhloride]: 111 to 114 °C and 0.81 µM.
As for `Cn1cc(C(=O)NCc2ccc(Cl)cc2)c(=O)c2cc(I)sc21` [Example 23, N-(4-Chlorobenzyl)-2-iodo-7-methyl-4-oxo-4,7-dihydrothieno[2,3-b]pyridine-5-carboxamide], the melting point lay in the range of 236 to 237 °C. In data set [1], the IC50 turned out to be 2.9 µM.
The matching figures for `Cn1cc(C(=O)NCc2ccc(Cl)cc2)c(=O)c2cc(C#CCO)sc21` [Example 24, N-(4-Chlorobenzyl)-2-(3-hydroxy-1-propynyl)-7-methyl-4-oxo-4,7-dihydrothieno[2,3-b]pyridine-5-carboxamide]: 206 to 208 °C and 1 µM.
The matching figures for `CC(C)n1cc(C(=O)NCc2ccc(Cl)cc2)c(=O)c2cc(I)sc21` [Example 26, N-(4-Chlorobenzyl)-2-iodo-7-isopropyl-4-oxo-7-3dihydrothiedion[2,3-b]pyridine-5-carboxamide]: 173 to 180 °C and 14.2 µM.
The like results for `CC(C)n1cc(C(=O)NCc2ccc(Cl)cc2)c(=O)c2cc(C#CCO)sc21` [Example 27, N-(4-Chlorobenzyl)-2-(3-hydroxy-1-propynyl)-7-isopropyl-4-oxo-4,7-dihydrothieno[2,3-b]pyridine-5-carboxamide] were, in that order, 190 to 196 °C and 4.2 µM.
In turn, `CC(C)n1cc(C(=O)NCc2ccc(Cl)cc2)c(=O)c2cc(CCCO)sc21` [Example 28, N-(4-Chlorobenzyl)-2-(3-hydroxypropyl)-7-isopropyl-4-oxo4,7-dihydrothieno[2,3-b]pyridine-5-carboxamide] showed a melting point of 84 to 92 °C. The IC50 in data set [1] is 2.4 µM.
With `CCn1cc(C(=O)NCc2ccc(Cl)cc2)c(=O)c2cc(C#CCOC(=O)C(N)C(C)C)sc21` (stereo not shown) [Example 31, 3-(5-{[(4-Chlorobenzyl)amino]carbonyl}-7-ethyl-4-oxo-4,7-dihydrothieno[2,3-b]pyridin-2-yl)-2-propynyl 2-Amino-3-methylbutanoate Hydrochloride], the IC50 in data set [1] was found to be 15.4 µM.

The melting point is the temperature of the solid-liquid transition. Usually IC50 stands for the point on the concentration scale where inhibition reaches its midpoint.

The record behind these values is US6495683B2, “4-oxo-4,7-dihydro-thieno[2,3-b]pyridine-5-carboxamides as antiviral agents” (Pharmacia and Upjohn Company, priority 1999, dated 2002).
